Measurements taken from US11292776B2, “Small molecule inhibitors of fungal hyphae and biofilm formation” (University of Sharjah, priority 2019, dated 2022).
Values after ≈ are worked out from the molar mass of the structure shown.

How the values were obtained:
C. albicans yeast = test: Antimicrobial activity / MIC against C. albicans growing in yeast-forming conditions; assay type: cell-based, C. albicans SC5314; conditions: for MIC: 24 h; for MIC / MIC C. albicans Yeast: MIC100, lowest concentration inhibiting 100% of growth, 24 hrs incubation; for IC50: Candida albicans, −log IC50 against C. albicans, training set of 3D QSAR, read-out: pIC50 Experimental (converted)
Procedure: (§1) Collections of bacterial and fungal strains were obtained from the laboratory of Dr. Ibrahim at Harbor-UCLA medical center, Torrance, Calif. The bacterial strains used in this study were the Gram-negative bacterium Escherichia coli and the Gram-Positive bacterium methicillin-resistant Staphylococcus aureus (MRSA) LAC300. All bacterial strains were cultured on sterile Luria-Bertani medium (LB). The fungal strain used in this study was C. albicans SC5314. C. albicans was inoculated into sterile yeast potato dextrose broth (YPD) and incubated for 24 h at 37° C. (This was used as an initial culture for all studies described), and incubated in two different media, Yeast Nitrogen Base (YNB) broth or Roswell Park Memorial Institute medium (RPMI-1640). Polymyxin B (colistin), vancomycin and Ketoconazole were purchased from (Sigma-Aldrich).
(§2) The antimicrobial activity of compounds SR1-8 on agar plates, liquid broth media and MIC were measured according to modified Clinical and Laboratory Standards Institute (CLSI). Briefly, 0.1 mL containing 10^5 CFU/mL was spread on Luria-Bertani (LB) agar plates. The plates were then incubated at 37° C. for […] with filter discs (8 mm diameter) saturated with different dilutions of the compounds (1-400 μg/mL). The inhibition zones (mm) were measured by determining the diameter of the clear area. Similarly, the activity in liquid media was measured by incubating the aforementioned concentrations of the compounds into LB broth media inoculated with 10^5 CFU/mL in 96-well microplates at 37° C. for 24 h. The turbidity representing the microbial growth was measured by microplate reader (DYNEX technologies) at OD600. […] Each test was performed in triplicate. Ketoconazole, colistin and vancomycin were employed as positive controls against C. albicans, E. coli and S. aureus bacteria, respectively. Cultures without the compounds or antimicrobials were employed as negative control.

[1] = system: C. albicans hyphae / biofilm; test: Inhibition of Candida biofilm (hyphae) formation, microtiter plate MTT assay; assay type: cell-based, C. albicans SC5314; conditions: for MIC: MIC100 for biofilm (hyphal) formation, 24 hrs incubation, RPMI-1640, 37° C.; for inhibition at 10 µg/mL: 10 μg/mL, hyphae growth conditions
Procedure: as §1
The MICs for cells forming biofilm were determined by a microtiter plate assay. Briefly, a 96-well polystyrene microtiter plate was seeded with 200 μL of RPMI-1640 containing 10^6 C. albicans cells in the presence of the compound of interest at concentration range of 1-100 μg/mL. After 24 h of incubation at 37° C., the biofilms were washed and the fungal viability was analyzed using 3-(4,5-dimethylthiazol-2-yl)-2,5-diphenyl tetrazolium bromide (MTT) (Sigma) and the final absorbance was measured at 540 nm. The assay was performed in triplicate and repeated three times. The MIC of the compounds causing 100% inhibition of C. albicans biofilm formation was determined by measuring the metabolic activity of biofilm compared to solvent control.

E. coli = test: Antimicrobial activity / MIC against E. coli; assay type: cell-based, Escherichia coli; conditions: MIC100, 24 hrs incubation; for MIC: Escherichia coli, read-out: MIC Bacteria E. Coli
Procedure: as §1, §2

S. aureus = test: Antimicrobial activity / MIC against S. aureus; assay type: cell-based, methicillin-resistant Staphylococcus aureus (MRSA) LAC300; conditions: Staphylococcus aureus; MIC100; 24 hrs incubation; read-out: MIC Bacteria S. aureus
Procedure: as §1, with “Polymyxin B (colistin), vancomycin and Ketoconazole were purchased from (Sigma-Aldrich).” left out
The antimicrobial activity of compounds SR1-8 on agar plates, liquid broth media and MIC were measured according to modified Clinical and Laboratory Standards Institute (CLSI). […] The inhibition zones (mm) were measured by determining the diameter of the clear area. Similarly, the activity in liquid media was measured by incubating the aforementioned concentrations of the compounds into LB broth media inoculated with 10^5 CFU/mL in 96-well microplates at 37° C. for 24 h. The turbidity representing the microbial growth was measured by microplate reader (DYNEX technologies) at OD600. […]

Procedure for human erythrocytes: DPBS-washed erythrocytes (3×10^6 cells per well) were incubated in 96-well plate with 200 μg/mL of SR compounds at 37° C. for 30 min. The hemoglobin released from lysed erythrocytes was measured using micro-plate reader at 405 nm. The absorbance value for each sample was subtracted from the absorbance value of cells treated only with washing buffer and the hemolytic activity (%) was calculated. The data display the mean±standard error (SEM) of three independent measurements.
The cytotoxic assay of SR compounds was measured by quantifying the amount of hemoglobin released by lysis of human erythrocytes as previously described. Briefly, fresh whole blood from healthy individual was collected by venipuncture and the blood was immediately centrifuged at 500 g for 10 min using benchtop centrifuge (Eppendorf 5804R Refrigerated Benchtop). […] The plate was incubated at 37° C. for 30 min, and the intact cells were precipitated by centrifugation at 500 g for 10 min at 4° C. and the supernatants (125 μL) were transferred to a flat-bottom 96-well plate to measure hemoglobin release by absorbance at 405 nm using a microplate reader. The absorbance values for each sample were subtracted from the absorbance value obtained for washing buffer-treated cells and the hemolytic activity (%) was calculated. […]

Row | Compound | MIC (C. albicans yeast) | MIC [1] | melting point | IC50 (C. albicans yeast) | MIC C. albicans Yeast (C. albicans yeast) | MIC (E. coli) | MIC (S. aureus) | MIC Bacteria E. Coli (E. coli) | erythrocyte hemolysis (positive control) (human erythrocytes) | inhibition at 10 µg/mL [1]
1 | CC(=O)N1CCN(c2ccc(OCC3COC(Cn4ccnc4)(c4ccc(Cl)cc4Cl)O3)cc2)CC1 (centres unmarked) [Ketoconazole, reference compound] | 3 µg/mL (≈ 5.65 µM) | – | – | – | – | – | – | – | – | –
2 | Cc1ccc(COc2ccc(C=C3SC(=S)NC3=O)cc2Br)cc1 [SR2, 5-[3-Bromo-4-(4-methyl-benzyloxy)-benzylidene]-2-thioxo-thiazolidin-4-one] | 200 µg/mL (≈ 476 µM) | 10 ± 2 µg/mL (≈ 23.8 µM) | 217 to 219 °C | 475 µM | 200 ± 15 µg/mL (≈ 476 µM) | 100 ± 10 µg/mL (≈ 238 µM) | – | – | – | –
3 | COc1cc(C=C2SC(=S)NC2=O)ccc1OCc1ccc(C)cc1 [SR1, 5-[3-Methoxy-4-(4-methyl-benzyloxy)-benzylidene]-2-thioxo-thiazolidin-4-one] | 400 µg/mL (≈ 1080 µM) | 20 ± 5 µg/mL (≈ 53.8 µM) | 205 to 207 °C | 1080 µM | >400 ± 15 µg/mL | 100 ± 10 µg/mL (≈ 269 µM) | > 400 µg/mL | – | – | –
4 | Colistin [reference compound] | – | – | – | – | – | – | – | 5 µg/mL | – | –
5 | Triton X-100 | – | – | – | – | – | – | – | – | 100% | –
6 | COc1cc(C=C2SC(=S)NC2=O)ccc1OCc1cccc(C(F)(F)F)c1 [SR7, 5-[3-Methoxy-4-(3-trifluoromethyl-benzyloxy)-benzylidene]-2-thioxo-thiazolidin-4-one] | 125 µg/mL (≈ 294 µM) | 10 ± 3 µg/mL (≈ 23.5 µM) | 199 to 201 °C | 264 µM | 125 ± 10 µg/mL (≈ 294 µM) | 100 ± 5 µg/mL (≈ 235 µM) | – | – | – | 90%
7 | O=C1NC(=S)SC1=Cc1ccc(OCc2ccc(C(F)(F)F)cc2)c(Br)c1 [SR5, 5-[3-Bromo-4-(4-trifluoromethyl-benzyloxy)-benzylidene]-2-thioxo-thiazolidin-4-one] | 200 µg/mL (≈ 422 µM) | 20 ± 3 µg/mL (≈ 42.2 µM) | 210 to 212 °C | 470 µM | 200 ± 15 µg/mL (≈ 422 µM) | 400 ± 20 µg/mL (≈ 843 µM) | – | – | – | –
8 | Cc1ccc(COc2ccc(C=C3SC(=S)NC3=O)cc2Cl)cc1 [SR3, 5-[3-Chloro-4-(4-methyl-benzyloxy)-benzylidene]-2-thioxo-thiazolidin-4-one] | 400 µg/mL (≈ 1060 µM) | 20 ± 5 µg/mL (≈ 53.2 µM) | 225 to 227 °C | 1060 µM | >400 ± 10 µg/mL | 400 ± 10 µg/mL (≈ 1060 µM) | – | – | – | –
9 | O=C1NC(=S)SC1=Cc1ccc(OCc2cccc(C(F)(F)F)c2)c(Br)c1 [SR6, 5-[3-Bromo-4-(3-trifluoromethyl-benzyloxy)-benzylidene]-2-thioxo-thiazolidin-4-one] | 125 µg/mL (≈ 264 µM) | 10 ± 5 µg/mL (≈ 21.1 µM) | 235 to 237 °C | 264 µM | 125 ± 10 µg/mL (≈ 264 µM) | 400 ± 10 µg/mL (≈ 843 µM) | – | – | – | 50%
10 | COc1cc(C=C2SC(=S)NC2=O)ccc1OCc1ccc(C(F)(F)F)cc1 [SR4, 5-[3-Methoxy-4-(4-trifluoromethyl-benzyloxy)-benzylidene]-2-thioxo-thiazolidin-4-one] | 200 µg/mL (≈ 470 µM) | 20 ± 5 µg/mL (≈ 47 µM) | 209 to 211 °C | 456 µM | 200 ± 10 µg/mL (≈ 470 µM) | 100 ± 10 µg/mL (≈ 235 µM) | – | – | – | 50%
11 | O=C1NC(=S)SC1=Cc1ccc(OCc2cccc(C(F)(F)F)c2)c(Cl)c1 [SR8, 5-[3-Chloro-4-(3-trifluoromethyl-benzyloxy)-benzylidene]-2-thioxo-thiazolidin-4-one] | 125 µg/mL (≈ 291 µM) | 20 ± 5 µg/mL (≈ 46.5 µM) | 224 to 226 °C | 294 µM | 125 ± 10 µg/mL (≈ 291 µM) | 100 ± 10 µg/mL (≈ 233 µM) | – | – | – | 50%
